Data published in patent US20090054454A1, “BENZOFURANYL- AND BENZOTHIENYL- PIPERAZINYL QUINOLINES AND METHODS OF THEIR USE” (priority 2007, published 2009).
Counter-ions that a name gives are not always drawn.

How the values were obtained:
[1] = target: Human 5-HT Transporter (Homo sapiens, UniProt P31645); assay: Inhibition of 3H-5-HT Uptake by Cells Possessing the Human 5-HT Transporter (HC 5HT Transporter), Jar cells; settings: HC-5HTC Transporter Ki (nM), Jar cells treated with staurosporine
Chain of Human 5-HT Transporter (P31645 whole entry): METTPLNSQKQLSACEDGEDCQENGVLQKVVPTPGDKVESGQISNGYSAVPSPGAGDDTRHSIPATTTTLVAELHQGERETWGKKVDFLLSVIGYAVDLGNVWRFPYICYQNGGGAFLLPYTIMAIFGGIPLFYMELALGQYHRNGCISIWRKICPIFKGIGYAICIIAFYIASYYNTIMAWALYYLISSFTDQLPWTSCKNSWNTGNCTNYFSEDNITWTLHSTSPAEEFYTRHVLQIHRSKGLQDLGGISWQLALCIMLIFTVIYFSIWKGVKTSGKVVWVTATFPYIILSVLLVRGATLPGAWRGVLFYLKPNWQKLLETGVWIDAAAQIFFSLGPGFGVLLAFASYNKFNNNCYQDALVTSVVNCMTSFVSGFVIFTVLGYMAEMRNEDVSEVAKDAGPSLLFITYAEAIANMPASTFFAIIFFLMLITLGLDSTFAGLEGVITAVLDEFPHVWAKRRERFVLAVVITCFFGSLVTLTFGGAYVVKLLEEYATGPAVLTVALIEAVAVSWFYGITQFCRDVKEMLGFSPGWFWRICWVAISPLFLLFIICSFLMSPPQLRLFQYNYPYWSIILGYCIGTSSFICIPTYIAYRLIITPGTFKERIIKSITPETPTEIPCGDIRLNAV

[2] = target: 5-HT transporter (Rattus norvegicus, UniProt P31652); assay: Rat Brain 3H-Paroxetine Binding Assay (RB 5HT Transporter); settings: read-out: RB-5HT Transporter % inhibition @ 1 μM concentration
Chain of 5-HT transporter (P31652 whole entry): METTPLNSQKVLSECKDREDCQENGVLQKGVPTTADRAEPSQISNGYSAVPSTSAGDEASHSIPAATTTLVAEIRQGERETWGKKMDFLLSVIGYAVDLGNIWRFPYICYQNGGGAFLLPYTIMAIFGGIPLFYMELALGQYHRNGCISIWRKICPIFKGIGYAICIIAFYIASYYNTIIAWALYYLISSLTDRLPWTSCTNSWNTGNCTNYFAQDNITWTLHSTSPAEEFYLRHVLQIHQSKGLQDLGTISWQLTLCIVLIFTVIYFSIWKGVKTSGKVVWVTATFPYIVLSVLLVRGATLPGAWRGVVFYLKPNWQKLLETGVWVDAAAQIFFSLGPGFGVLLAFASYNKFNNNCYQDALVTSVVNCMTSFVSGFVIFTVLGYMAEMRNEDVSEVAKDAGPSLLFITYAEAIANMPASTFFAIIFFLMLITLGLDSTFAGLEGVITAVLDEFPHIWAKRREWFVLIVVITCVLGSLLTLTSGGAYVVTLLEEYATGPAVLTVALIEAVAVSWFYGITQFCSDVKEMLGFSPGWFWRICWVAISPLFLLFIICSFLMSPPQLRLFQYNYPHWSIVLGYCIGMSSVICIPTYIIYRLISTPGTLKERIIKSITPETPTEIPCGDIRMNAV

[3] = target: T1, human 5-HT1A receptors (Homo sapiens, UniProt P08908); assay: Displacement of [3H] 8-OH-DPAT from the 5-HT1A serotonin receptor; format: binding; settings: 1 μM concentration; starred cells of the 5-HT1A column
T1 construct: expressed in transfected cells; host or cells: CHO cells (stably transfected)
T1 sequence (P08908 1-422): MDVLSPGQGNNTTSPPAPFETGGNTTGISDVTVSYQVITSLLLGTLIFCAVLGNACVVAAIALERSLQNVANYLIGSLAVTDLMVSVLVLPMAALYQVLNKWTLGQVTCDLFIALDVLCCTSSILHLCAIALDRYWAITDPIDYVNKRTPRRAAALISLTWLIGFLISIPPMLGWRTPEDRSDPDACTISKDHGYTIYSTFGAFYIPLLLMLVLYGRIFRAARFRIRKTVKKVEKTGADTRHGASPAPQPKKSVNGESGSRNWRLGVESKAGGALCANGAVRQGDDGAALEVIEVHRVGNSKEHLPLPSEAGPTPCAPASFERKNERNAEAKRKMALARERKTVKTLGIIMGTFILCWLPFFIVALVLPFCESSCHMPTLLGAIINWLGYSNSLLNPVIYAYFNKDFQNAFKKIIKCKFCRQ

SMILES	melting point	Ki [1]	inhibition at 1 µM [2]	inhibition at 1 µM [3]
COc1cccc2c1occ2[C@H]1CC[C@@H](N2CCN(c3ccc(F)c4cccnc34)CC2)CC1 [Compound 57, 5-fluoro-8-{4-[4-cis(7-methoxy-1-benzofuran-3-yl)cyclohexyl]-1-piperazinyl}quinoline]	143 to 146 °C	3040 nM		
COc1ccc2occ([C@H]3CC[C@@H](N4CCN(c5cc(F)cc6cccnc56)CC4)CC3)c2c1 [Compound 67, 6-fluoro-8-{4-[4-cis(5-methoxy-1-benzofuran-3-yl)cyclohexyl]piperazin-1-yl}quinoline]	153 to 160 °C	1200 nM		
Clc1cc(N2CCN(CCc3coc4cc(Cl)ccc34)CC2)c2ncccc2c1 [Compound 7, 8-{4-[2-(6-chloro-1-benzofuran-3-yl)ethyl]-1-piperazinyl}-6-chloro-quinoline]		2150 nM	32%	
Fc1ccc(N2CCN([C@H]3CC[C@H](c4coc5ccccc54)CC3)CC2)c2ncccc12 [Compound 54, 8-{4-[4-trans(1-benzofuran-3-yl)cyclohexyl]-1-piperazinyl}-5-fluoroquinoline]	162 to 164 °C	220 nM		
Clc1cc(N2CCN([C@H]3CC[C@@H](c4csc5ccccc54)CC3)CC2)c2ncccc2c1 [Compound 41, 8-{4-[4-cis-(1-benzothien-3-yl)cyclohexyl]-1-piperazinyl}-6-chloroquinoline]	164 to 165 °C	338 nM		
COc1cc(N2CCN([C@H]3CC[C@@H](c4cc5ccccc5s4)CC3)CC2)c2ncccc2c1 [Compound 70]	184 to 186 °C	3000 nM		
COc1ccc2occ([C@H]3CC[C@H](N4CCN(c5cc(F)cc6cccnc56)CC4)CC3)c2c1 [Compound 68, 6-fluoro-8-{4-[4-trans(5-methoxy-1-benzofuran-3-yl)cyclohexyl]piperazin-1-yl}quinoline]	152 to 155 °C	3290 nM		
Fc1cc(N2CCN([C@H]3CC[C@H](c4coc5ccccc54)CC3)CC2)c2ncccc2c1 [Compound 56, 8-{4-[4-trans(1-benzofuran-3-yl)cyclohexyl]-1-piperazinyl}-6-fluoroquinoline]	195 to 197 °C	337 nM		
Fc1cc(N2CCN(C3CCC(c4cc5ccccc5o4)CC3)CC2)c2ncccc2c1 (stereo not drawn) [Compound 69, 8-[4-(4-benzofuran-2-yl-yclohexyl)-piperazin-1-yl]-6-fluoro-quinoline]	91 to 93 °C			
COc1cccc2c1occ2[C@H]1CC[C@@H](N2CCN(c3cc(F)cc4cccnc34)CC2)CC1 [Compound 59, 6-fluoro-8-{4-[4-cis(7-methoxy-1-benzofuran-3-yl)cyclohexyl]-1-piperazinyl}quinoline]	75 to 83 °C	455 nM		
COc1cc(N2CCN([C@H]3CC[C@@H](c4csc5ccccc54)CC3)CC2)c2ncccc2c1 [Compound 45, 8-{4-[4-cis(1-benzothien-3-yl)cyclohexyl]-1-piperazinyl}-6-methoxyquinoline]	148 to 150 °C	1080 nM		
COc1cccc2c1occ2[C@H]1CC[C@H](N2CCN(c3cc(F)cc4cccnc34)CC2)CC1 [Compound 60, 6-fluoro-8-{4-[4-trans(7-methoxy-1-benzofuran-3-yl)cyclohexyl]-1-piperazinyl}quinoline]	195 to 197 °C	212 nM		
COc1cc(N2CCN(CCc3coc4c(OC)cccc34)CC2)c2ncccc2c1 (as salt: HCl) [Compound 19, 8-{4-[2-(7-methoxy-1-benzofuran-3-yl)ethyl]-1-piperazinyl}-6-methoxy-quinoline]	86 °C			
COc1cccc2c(C(C)CN3CCN(c4cc(Cl)cc5cccnc45)CC3)coc12 (stereo not drawn) (as salt: HCl) [Compound 33, 8-{4-[2-(7-methoxy-1-benzofuran-3-yl)propyl]-1-piperazinyl}-6-chloro-quinoline]	55 to 58 °C			
Fc1cc(N2CCN([C@H]3CC[C@@H](c4csc5ccccc54)CC3)CC2)c2ncccc2c1 [Compound 43, 8-{4-[4-cis(1-benzothien-3-yl)cyclohexyl]-1-piperazinyl}-6-fluoroquinoline]	147 to 151 °C	1440 nM		
COc1ccc2occ(CCN3CCN(c4cc(C(C)C)cc5cccnc45)CC3)c2c1 [Compound 24, 8-{4-[2-(5-methoxy-1-benzofuran-3-yl)ethyl]-1-piperazinyl}-6-isopropyl-quinoline]		3730 nM	24%	46%
COc1cccc2c1occ2[C@H]1CC[C@@H](N2CCN(c3cccc4cccnc34)CC2)CC1 [Compound 61, 8-{4-[4-cis(7-methoxy-1-benzofuran-3-yl)cyclohexyl]-1-piperazinyl}quinoline]	66 to 67 °C	96.8 nM		
Fc1cc(N2CCN([C@H]3CC[C@H](c4csc5ccc(F)cc54)CC3)CC2)c2ncccc2c1 [Compound 48, 6-fluoro-8-{4-[4-trans(5-fluoro-1-benzothien-3-yl)cyclohexyl]piperazin-1-yl}quinoline]	143 to 144 °C	739 nM		
COc1ccc2occ(CCN3CCN(c4cccc5cccnc45)CC3)c2c1 [Compound 21, 8-{4-[2-(5-methoxy-1-benzofuran-3-yl)ethyl]-1-piperazinyl}-quinoline]	78 °C	43.6 nM		
COc1ccc2occ(CCN3CCN(c4cc(Cl)cc5cccnc45)CC3)c2c1 [Compound 22, 8-{4-[2-(5-methoxy-1-benzofuran-3-yl)ethyl]-1-piperazinyl}-6-chloro-quinoline]	72 °C	106 nM		
Fc1cc(N2CCN([C@H]3CC[C@@H](c4csc5ccc(F)cc54)CC3)CC2)c2ncccc2c1 [Compound 47, 6-fluoro-8-{4-[4-cis(5-fluoro-1-benzothien-3-yl)cyclohexyl]piperazin-1-yl}quinoline]		3490 nM	25%	
COc1cc(N2CCN([C@H]3CC[C@H](c4cc5ccccc5s4)CC3)CC2)c2ncccc2c1 [Compound 71]	193 to 194 °C			
Fc1ccc2scc([C@H]3CC[C@H](N4CCN(c5ccc(Cl)c6cccnc56)CC4)CC3)c2c1 [Compound 52, 5-chloro-8-{4-[4-trans(5-fluoro-1-benzothien-3-yl)cyclohexyl]piperazin-1-yl}quinoline]	195 to 197 °C	751 nM		42%
Fc1cc(N2CCN([C@H]3CC[C@H](c4csc5ccccc54)CC3)CC2)c2ncccc2c1 [Compound 44, 8-{4-[4-trans(1-benzothien-3-yl)cyclohexyl]-1-piperazinyl}-6-fluoroquinoline]	195 °C	1620 nM		
Clc1cc(N2CCN([C@H]3CC[C@H](c4csc5ccccc54)CC3)CC2)c2ncccc2c1 [Compound 42, 8-{4-[4-trans(1-benzothien-3-yl)cyclohexyl]-1-piperazinyl}-6-chloroquinoline]	143 to 144 °C	184 nM		
COc1cccc2c1occ2[C@H]1CC[C@H](N2CCN(c3cccc4cccnc34)CC2)CC1 [Compound 62, 8-{4-[4-trans(7-methoxy-1-benzofuran-3-yl)cyclohexyl]-1-piperazinyl}quinoline]	195 to 197 °C	38 nM		
Fc1ccc2scc([C@H]3CC[C@@H](N4CCN(c5ccc(Cl)c6cccnc56)CC4)CC3)c2c1 [Compound 51, 5-chloro-8-{4-[4-cis(5-fluoro-1-benzothien-3-yl)cyclohexyl]piperazin-1-yl}quinoline]	192 to 197 °C	1150 nM		
Fc1ccc(N2CCN([C@H]3CC[C@@H](c4coc5ccccc54)CC3)CC2)c2ncccc12 [Compound 53, 8-{4-[4-cis(1-benzofuran-3-yl)cyclohexyl]-1-piperazinyl}-5-fluoroquinoline]	142 to 144 °C	3910 nM		
COc1cc(N2CCN([C@H]3CC[C@H](c4csc5ccccc54)CC3)CC2)c2ncccc2c1 [Compound 46, 8-{4-[4-trans (1-benzothien-3-yl)cyclohexyl]-1-piperazinyl}-6-methoxyquinoline]	166 to 168 °C	802 nM		
Fc1cc(N2CCN(CCc3coc4ccc(F)cc34)CC2)c2ncccc2c1 (as salt: HCl) [Compound 17, 8-{4-[2-(5-fluoro-1-benzofuran-3-yl)ethyl]-1-piperazinyl}-6-fluoro-quinoline]	55 °C			
